Patent publication EP4700022A1, “CYP11A1 INHIBITORS AND USE THEREOF” (Xizang Haisco Pharmaceutical Co., Ltd., priority 2023, dated 2024)

Tests used:
[1] = test system: testosterone level in NCI-H295R cells; experiment: cells; format: cell-based; settings: Homo sapiens, 72 h; for inhibition at 0.1 µM: read-out: Testosterone level in H295R (Elisa) inh.% 100 nM; for inhibition at 1 µM: read-out: Testosterone level in H295R (Elisa) inh.% 1000 nM; for IC50: read-out: IC50/nM
Method: 1. The purpose of the experimental study was intended to detect the testosterone level in the NCI-H295R cells by adopting the Enzyme linked immunosorbent assay (ELISA), so as to evaluate the inhibitory effects of the compounds on the testosterone level in the NCI-H295R cells. The H295R cells were purchased from ATCC, the cell complete medium contained DMEM: F12+ 10% FBS +0.00625 mg/ml insulin +0.00625 mg/ml transferrin+6.25 ng/ml selenium +1.25 mg/ml BSA+0.00535 mg/ml linoleic acid, and the cells were cultured in a 37°C, 5% CO2 incubator. The cells in the exponential growth phase were collected, and cultured in a cytokine-free medium (phenol red 1640-free +1% PS+10% css FBS+1.25 mg/ml BSA +0.00625 mg/ml insulin + 0.00625 mg/ml transferrin+6.25 ng/ml selenium+0.00535 mg/ml linoleic acid) for 3 days. The cells in the exponential growth phase were collected on the third day. The cell suspension was adjusted with a cytokine-free medium to a corresponding concentration and plated at 60000 cells/well, with the volume being 90 µL/well. Subsequently, 10 µL of the compounds at different concentrations was added and the plate was incubated in a CO2 incubator for 3 days. After the incubation was completed, according to the operation instructions for testosterone Elisa kit (Beyotime, PT872), 50 µL of the cell culture supernatant was collected from each well and centrifuged at 500 g for 5 min at room temperature and then the resulting supernatant was collected. The samples were added to the corresponding wells at 25 µl/well, and then formulated horseradish peroxidase labeled testosterone was added at 75 µl/well. The mixture was fully mixed for 10 seconds. The reaction wells were sealed with a plate-sealing film (white) and the mixture was incubated at room temperature in the dark for 120 min. The plate was washed 3 times with a volume of 300 µl per well, and then placed onto thick absorbent paper and dried. Chromogenic reagent TMB solution was added at 100 µl/well. The reaction wells were sealed with a plate-sealing film (white) and the mixture was incubated at room temperature in the dark for 15-20 min. Subsequently, a termination solution was added at 50 µl/well, and after the mixture was fully mixed, the absorbance value OD450 was immediately measured. The absorbance readings were processed using Graphpad Prim 8.0 software and S-shaped concentration curves were plotted and the IC50 values were calculated using a four-parameter non-linear regression model. The results were processed according to formula (1), the inhibition rate of the compound at different concentrations was calculated, and the IC50 value of the compound with an inhibition rate of 50% was calculated using Graphpad Prim 8.0 software, wherein RLU compound was the readout of the treated group, and RLU control was the average value of the solvent control group. Inhibition rate% = 100-RLUcompound /RLUcontrol × 100 [formula] Table 1. Inhibitory activity on testosterone level in NCI-H295R cells

[2] = Pharmacokinetic test in mice; format: in vivo; settings: mouse, male ICR mice, plasma; for Vd: read-out: Vdss
Method: 4.1. Experimental animals: Male ICR mice, 20-25 g, 6 mice/compound, purchased from Chengdu Dossy Experimental Animals Co., Ltd.
4.2 Experimental design: on the day of the experiment, the ICR mice were randomly grouped according to their body weights. […] Table 5. Administration information
vehicle for intravenous administration: 5% DMA+5% HS-15+90% NS; vehicle for intragastric administration: 0.5% MC
Before and after administration, 0.06 mL of blood was taken from the orbit under isoflurane anesthesia and placed in an EDTAK2 centrifuge tube. The tube was centrifuged at 5000 rpm at 4°C for 10 min, and plasma was collected. […] Before analysis and detection, all samples were stored at -80°C, and the samples were quantitatively analyzed by LC-MS/MS. Table 6. Pharmacokinetic parameters of test compounds in plasma of mice

[3] = Pharmacokinetic test in rats; format: in vivo; settings: rat, male SD rats, plasma; for Vd: read-out: Vdss
Method: 3.1 Experimental animals: Male SD rats (about 220 g, 6-8 weeks old, 6 rats/compound), purchased from Chengdu Dossy Experimental Animals Co., Ltd.
3.2 Experimental design: On the day of the experiment, the SD rats were randomly grouped by body weight. […] Table 3. Administration information
Before and after the administration, 0.1 ml of blood was taken from the orbit of the animals under isoflurane anesthesia and placed in an EDTAK2 centrifuge tube. The blood was centrifuged at 5000 rpm and 4°C for 10 min to collect plasma. […] Before analysis and detection, all samples were stored at -80°C. Table 4. Pharmacokinetic parameters of test compounds in plasma of rats

[4] = po, intragastric administration (10 mg/kg)
[5] = intravenous administration (2.5 mg/kg)

For `CS(=O)(=O)N1CC(OC(=O)N2CCC3(CC2)CC(Oc2cc(CN4Cc5ccc(C(F)(F)F)cc5C4)ccn2)C3)C1` [Compound 38], the inhibition at 0.1 µM [1] was 68.2%, the inhibition at 1 µM [1] was 81% and the AUC(0-t) [2, 4] was 13500 ng·h/mL. It also gave a half-life [2, 4] of 3.65 h, an AUC(0-t) [2, 5] of 4360 ng·h/mL and a clearance [2, 5] of 9.45 mL/min/kg. For the same molecule, the half-life [2, 5] was 4.11 h and the Vd [2, 5] was 2.78 L/kg.
Work on `N#Cc1cc(CN2Cc3ccc(C(F)(F)F)cc3C2)cc2cc([C@H]3CC[C@H](NC(=O)C4CC4)CC3)oc12` [Compound 69] yielded an inhibition at 0.1 µM [1] of 79% and an inhibition at 1 µM [1] of 80%.
Work on `CS(=O)(=O)N1CCC(C2=COc3cc(CN4Cc5ccc(C(F)(F)F)cc5C4)ccc3O2)CC1` [Compound 84] yielded an IC50 [1] of 38 nM, an inhibition at 0.1 µM [1] of 74% and an inhibition at 1 µM [1] of 83%.
Work on `N#Cc1cc(CN2Cc3ccc(C(F)(F)F)cc3C2)cc2cc(C3CCN(C(=O)OC4CC4)CC3)oc12` [Compound 53] yielded an inhibition at 0.1 µM [1] of 72.5%, an inhibition at 1 µM [1] of 85.5% and an AUC(0-t) [3, 4] of 6750 ng·h/mL. The half-life [3, 4] was 8.13 h, the AUC(0-t) [3, 5] was 3110 ng·h/mL and the clearance [3, 5] was 11 mL/min/kg. For the same molecule, the half-life [3, 5] was 13.2 h and the Vd [3, 5] was 8.06 L/kg.
`O=C(OC1CC1)N1CCC(CCOc2cc(CN3Cc4ccc(C(F)(F)F)cc4C3)ccn2)CC1` [Compound 40] gave an IC50 [1] of 77 nM, an AUC(0-t) [3, 4] of 4210 ng·h/mL and a half-life [3, 4] of 11.1 h. For the same molecule, the AUC(0-t) [3, 5] was 1950 ng·h/mL, the clearance [3, 5] was 19.1 mL/min/kg and the half-life [3, 5] was 9.77 h. It also gave a Vd [3, 5] of 9.21 L/kg.
Work on `CS(=O)(=O)N1CCC(c2cc3oc(CN4Cc5ccc(C(F)(F)F)cc5C4)cc(=O)c3o2)CC1` [Compound 30] yielded an IC50 [1] of 35.3 nM, an inhibition at 0.1 µM [1] of 59.1% and an inhibition at 1 µM [1] of 80.9%.
Work on `O=C(OC1CC1)N1CCC2(CC1)CC(Oc1cc(CN3Cc4ccc(C(F)(F)F)cc4C3)ccn1)C2` [Compound 48] yielded an inhibition at 0.1 µM [1] of 77.5% and an inhibition at 1 µM [1] of 78.2%.
Work on `CS(=O)(=O)N1CC(OC(=O)N2CCC(CCOc3cc(CN4Cc5ccsc5C4)ccn3)CC2)C1` [Compound 41] yielded an inhibition at 0.1 µM [1] of 51.5% and an inhibition at 1 µM [1] of 67.9%.
For `O=C(N[C@H]1CC[C@H](CCOc2cc(CN3Cc4ccc(C(F)(F)F)cc4C3)ccn2)CC1)OC1CC1` [Compound 51], the inhibition at 0.1 µM [1] was 74.4%, the inhibition at 1 µM [1] was 78.5% and the AUC(0-t) [3, 4] was 13600 ng·h/mL. The half-life [3, 4] was 9.63 h, the AUC(0-t) [3, 5] was 4000 ng·h/mL and the clearance [3, 5] was 9.32 mL/min/kg. For the same molecule, the half-life [3, 5] was 8.52 h and the Vd [3, 5] was 4.58 L/kg.
`O=C(OC1CC1)N1CCC(COc2ccc(CN3Cc4ccc(C(F)(F)F)cc4C3)c3ccc(F)nc23)CC1` [Compound 36] gave an inhibition at 0.1 µM [1] of 56.8% and an inhibition at 1 µM [1] of 62%.
With `CS(=O)(=O)N1CCC(CCOc2cc(CN3Cc4ccc(C5CC5)cc4C3)ccn2)CC1` [Compound 50] the IC50 [1] was 130 nM, the inhibition at 0.1 µM [1] was 51.7% and the inhibition at 1 µM [1] was 89.4%. It also gave an AUC(0-t) [2, 4] of 7780 ng·h/mL, a half-life [2, 4] of 2.73 h and an AUC(0-t) [2, 5] of 2360 ng·h/mL. The clearance [2, 5] was 17.3 mL/min/kg, the half-life [2, 5] was 3 h and the Vd [2, 5] was 3.37 L/kg.
Molecule `CS(=O)(=O)N1CC(OC(=O)N2CCC(COc3ccc(CN4Cc5ccc(C(F)(F)F)cc5C4)c4c3S(=O)(=O)CC4)CC2)C1` [Compound 39] has an inhibition at 0.1 µM [1] of 55.8% and an inhibition at 1 µM [1] of 74.6%.
Molecule `CS(=O)(=O)N1CCC(COc2ccc(CN3Cc4ccccc4C3)c3cccnc23)CC1` [Compound 4] has an inhibition at 0.1 µM [1] of 81.5% and an inhibition at 1 µM [1] of 89.2%.
In the case of `CS(=O)(=O)N1CCC(CCn2ccc(CN3Cc4ccc(C5CC5)cc4C3)cc2=O)CC1` [Compound 16], the inhibition at 0.1 µM [1] is reported as 51.7% and the inhibition at 1 µM [1] is reported as 89.4%.
`CS(=O)(=O)N1CCC(CCOc2cc(CN3Cc4ccccc4C3)ccn2)CC1` [Compound 10] gave an IC50 [1] of 81.9 nM and an inhibition at 1 µM [1] of 85.4%.
Molecule `COc1cc(CN2Cc3ccc(C(F)(F)F)cc3C2)cc2cc(C3CCN(C(=O)OC4CC4)CC3)oc12` [Compound 54] has an inhibition at 0.1 µM [1] of 59.1%, an inhibition at 1 µM [1] of 78.4% and an AUC(0-t) [3, 4] of 5840 ng·h/mL. For the same molecule, the half-life [3, 4] was 7.74 h, the AUC(0-t) [3, 5] was 3560 ng·h/mL and the clearance [3, 5] was 10.3 mL/min/kg. The half-life [3, 5] was 10.3 h and the Vd [3, 5] was 6.41 L/kg.
Molecule `O=C(N[C@H]1CC[C@H](CCOc2cc(CN3Cc4ccc(C(F)(F)F)cc4C3)ccn2)CC1)[C@H]1CC1(F)F` [Compound 70] has an inhibition at 0.1 µM [1] of 68.9% and an inhibition at 1 µM [1] of 76.3%.
Work on `O=C(OC1CC1)N1CCC(Cc2cc3oc(CN4Cc5ccc(C(F)(F)F)cc5C4)cc(=O)c3o2)CC1` [Compound 42] yielded an inhibition at 0.1 µM [1] of 76.9% and an inhibition at 1 µM [1] of 82.6%.
Molecule `O=C(N[C@H]1CC[C@H](c2cc3oc(CN4Cc5ccc(C(F)(F)F)cc5C4)cc(=O)c3o2)CC1)C1CC(F)(F)C1` [Compound 72] has an inhibition at 0.1 µM [1] of 81% and an inhibition at 1 µM [1] of 88%.
In the case of `CS(=O)(=O)N1CC(OC(=O)N2CCC(COc3ccc(CN4Cc5ccc(C(F)(F)F)cc5C4)c4c3OCCO4)CC2)C1` [Compound 37], the inhibition at 0.1 µM [1] is reported as 87.1% and the inhibition at 1 µM [1] is reported as 77%.
For `O=C(N[C@H]1CC[C@H](CCOc2cc(CN3Cc4ccc(C5CC5)cc4C3)ccn2)CC1)C1CC1` [Compound 60], the AUC(0-t) [3, 4] was 27100 ng·h/mL, the half-life [3, 4] was 2.36 h and the AUC(0-t) [3, 5] was 6080 ng·h/mL. For the same molecule, the clearance [3, 5] was 6.8 mL/min/kg, the half-life [3, 5] was 1.75 h and the Vd [3, 5] was 0.951 L/kg.
For `COc1nc(CN2Cc3ccc(C(F)(F)F)cc3C2)ccc1OCC1CCN(C(=O)C2CC(F)(F)C2)CC1` [Compound 75], the inhibition at 0.1 µM [1] was 76.2% and the inhibition at 1 µM [1] was 90.4%.
With `CS(=O)(=O)N1CC(OC(=O)N2CCC(CCOc3cc(CN4Cc5ccc(C(F)(F)F)cc5C4)ccn3)CC2)C1` [Compound 49] the inhibition at 0.1 µM [1] was 57.7% and the inhibition at 1 µM [1] was 65.2%.
For `[2H]C([2H])([2H])C(=O)N[C@H]1CC[C@H](Cc2cc3oc(CN4Cc5ccc(C(F)(F)F)cc5C4)cc(=O)c3o2)CC1` [Compound 67], the inhibition at 0.1 µM [1] was 52% and the inhibition at 1 µM [1] was 72%.
Molecule `O=C(OC1CC1)N1CCC(/C=C/c2coc(CN3Cc4cc5c(cc4C3)CCC5)cc2=O)CC1` [Compound 43] has an inhibition at 0.1 µM [1] of 75.6% and an inhibition at 1 µM [1] of 77.8%.
`O=C(OC1CC1)N1CCC(CCOc2ccnc(CN3Cc4ccc(C(F)(F)F)cc4C3)c2)CC1` [Compound 59] showed an inhibition at 0.1 µM [1] of 60% and an inhibition at 1 µM [1] of 76%.
Molecule `O=C(N[C@H]1CC[C@H](Cc2cc3oc(CN4Cc5ccc(C(F)(F)F)cc5C4)cc(=O)c3o2)CC1)C1CC1` [Compound 66] has an inhibition at 0.1 µM [1] of 54.8% and an inhibition at 1 µM [1] of 76.7%.
In the case of `O=C(CC(F)(F)F)N[C@H]1CC[C@H](CCOc2cc(CN3Cc4ccc(C(F)(F)F)cc4C3)ccn2)CC1` [Compound 76], the inhibition at 0.1 µM [1] is reported as 70% and the inhibition at 1 µM [1] is reported as 78%.
